Assays:
[1] = test system: anti-citrullinated peptides/proteins antibodies (ACPA) in serum; conditions: 206 disease controls
Procedure: The MAP of the citrullinated peptide antigens according to the invention was diluted to a concentration of 20 μg/ml in phosphate buffered saline (PBS) and loaded into the wells of a polystyrene micro-titration plate (50 μl/well). […] Upon completion of the coating period, the wells containing the antigen, plus an equal number of wells which were used as controls, were treated for 1 hour at room temperature (RT) with 3% bovine serum albumin (BSA) in PBS. The patients' serum samples (diluted 1:200 in a buffer constituted by 1% BSA, 0.05% Tween X-100 in PBS) were then loaded onto the plate (50 μl/well) and left to incubate for 3 hours at RT. After the incubation period, one washing was performed with 1% PBS Tween X-100 and two washings were performed with PBS (150 μl/well). […] Upon completion of the incubation, after three washings as described above, the alkaline phosphatase substrate (p-nitrophenyl phosphate) was added to the wells and, in the presence of the enzyme, it produced a yellow product measurable by spectrophotometric techniques at a wavelength of 405 nm; its quantity was proportional to the titre of antibodies bound. The results of the test were expressed as the percentage of positivity, calculated by dividing the absorbance of each serum sample by the absorbance of a positive serum sample the value of which was set arbitrarily at 100.

[2] = test system: autoantibodies in RA sera; experiment: 79 RA patients tested for anti-CCP2, anti-CCP3, anti-VCP1 and anti-VCP2 (FIG. 1); assay type: binding, human
Source text: FIG. 1. […] The presence of different populations of autoantibodies is depicted in the block diagram. Number of RA sera positive (+) or negative (−) to anti-CCP2, anti-CCP3, anti-VCP1 [peptide of formula (VI)], and anti-VCP2 [peptide of formula (V)] are shown above the diagram.
Noteworthy, 7/79 (9%) anti-CCP2 and anti-CCP3 negative sera are positive to the peptide of formula (VI); 2/79 (3%) anti-CCP2 and anti-CCP3 negative sera are positive to peptide of formula (V); 1/79 (1%) anti-CCP2 and anti-CCP3 negative serum is positive to both peptides of formula (V) and formula (VI). Thus, formula (V) and (VI) allow to detect antibodies in a subgroup of anti-CCP negative RA patients (FIG. 1).

[3] = test system: anti-VCP2 antibodies (IgG) from RA sera; experiment: ELISA of affinity-purified anti-VCP2 antibodies from RA sera (Example 5); assay type: binding, human; conditions: four preparations from 4 different RA sera
Procedure: FIG. 4. Isolation of anti-VCP2 antibodies from RA sera was performed according to the method described in example 4.
A citrullinated peptide or MAP according to the present invention was conjugated to CNBr-activated sepharose according to standard procedures known by one skilled in the art. Total immunoglobulins from sera containing anti-CP antibodies were precipitated with 50% saturated ammonium sulfate; the precipitates were dissolved in phosphate buffer (pH 7.4) and dialyzed overnight against PBS. Enriched immunoglobulin preparations were applied to the column, and the flowthrough was collected for subsequent analysis. The column was extensively washed with 20 mM Na2HPO4, 150 mM NaCl (pH 7.2), and the antibodies bound to the column were eluted by 0.1 M glycine buffer (pH 2.8) (0.5 ml/fraction), immediately neutralized with 50 μl Tris 1M (pH 8.0), and dialyzed overnight against PBS. The anti-CP antibody content in the eluates and flowthrough was tested by ELISA.

[4] = test system: anti-CP antibodies (IgG, IgM, IgA) in patients' serum samples
Procedure: The MAP of the citrullinated peptide antigens according to the invention was diluted to a concentration of 20 μg/ml in phosphate buffered saline (PBS) and loaded into the wells of a polystyrene micro-titration plate (50 μl/well). […] Upon completion of the coating period, the wells containing the antigen, plus an equal number of wells which were used as controls, were treated for 1 hour at room temperature (RT) with 3% bovine serum albumin (BSA) in PBS. The patients' serum samples (diluted 1:200 in a buffer constituted by 1% BSA, 0.05% Tween X-100 in PBS) were then loaded onto the plate (50 μl/well) and left to incubate for 3 hours at RT. After the incubation period, one washing was performed with 1% PBS Tween X-100 and two washings were performed with PBS (150 μl/well). […] The antibody (50 μl/well) was then incubated for 3 hours at RT with agitation. Upon completion of the incubation, after three washings as described above, the alkaline phosphatase substrate (p-nitrophenyl phosphate) was added to the wells and, in the presence of the enzyme, it produced a yellow product measurable by spectrophotometric techniques at a wavelength of 405 nm; its quantity was proportional to the titre of antibodies bound. The results of the test were expressed as the percentage of positivity, calculated by dividing the absorbance of each serum sample by the absorbance of a positive serum sample the value of which was set arbitrarily at 100.
Serum samples of 104 patients suffering from RA, 97 normal healthy subjects (NHS), and 194 disease controls (systemic lupus erythematosus, systemic scleroderma, Sjogren syndrome, mixed cryoglobulinemia, psoriasic arthritis, ankylosing spondilytis, rheumatic polymialgia and infectious mononucleosis) were tested by this method using the peptide of formula (V).

[5] = test system: anti-CP IgG antibodies in RA patients' serum; conditions: cut-off 97.5th percentile of normal controls
Procedure: The ability to recognize specific antibodies in RA patients by MAP of formula (V), in comparison with the MAP of formula (VI) was evaluated by ELISA.
MAP of formula (V) and MAP of formula (VI) were diluted respectively to a concentration of 20 μg/ml and 5 μg/ml in PBS, loaded into the wells of a polystyrene micro-titration plate (50 μl/well), and left overnight at +4° C. Upon completion of the coating period, the wells were treated for 1 hour at RT with 3% BSA in PBS. The patients' serum samples (diluted 1:200 in a buffer constituted by 1% BSA, 0.05% Tween X-100 in PBS) were then loaded onto the plate (50 μl/well) and left to incubate for 3 hours at RT. After the incubation period, one washing was performed with 1% PBS Tween X-100 and two washings were performed with PBS (150 μl/well). An anti human-IgG antibody conjugated to the enzyme alkaline phosphatase (50 μl/well), diluted 1:3000 in 1% PBS BSA, 0.05% Tween X-100, was incubated for 3 hours at RT with stirring. Upon completion of the incubation, after three washings as described above, p-nitrophenyl phosphate was added to the wells and the absorbance at a wavelength of 405 nm was determined. The results of the test were expressed as the percentage of positivity, calculated by dividing the absorbance of each serum sample by the absorbance of a positive serum sample the value of which was set arbitrarily at 100.
Serum samples of 100 patients suffering from RA were tested by this method.

For “(G Q S Cit G Q S Cit G Cit G Cit G Cit G Cit G Cit G K G)4 K2 K beta-Alanine [VCP2]”, the “specificity in detecting ACPA in RA patients” value ([1]; 100 RA, 100 NHS) was “high specificity”, the “antibodies detected in disease controls” value ([1]; in particular IM and SLE) was “no antibodies were detected” and the “RA sera containing antibodies reacting with either one of the two MAP” value ([2]; comparison of MAP of formula (V) and MAP of formula (VI)) was 15%. The “anti-CCP2 and anti-CCP3 negative sera positive to the peptide” value ([2]; of 79 RA patients) was 3%, the “anti-CCP2 and anti-CCP3 negative serum positive to both peptides” value ([2]; of 79 RA patients (1/79)) was 1% and the “positive RA sera” value ([2]; population of 79 RA patients) was 52%. For the same substance, the “reactivity of purified anti-VCP2 IgG with the antigen” value [3] was “very high reactivity”, the “anti-CP antibodies found in normal healthy subjects and disease controls” value ([4]; 97 NHS and 194 disease controls) was “less than 5%” and the “anti-CP IgA antibodies found in RA serum samples” value ([4]; 104 RA patients (41/104), cut-off 97.5th percentile of normal controls) was 40%. For the same substance, the “anti-CP IgM antibodies found in RA serum samples” value ([4]; 104 RA patients (48/104), cut-off 97.5th percentile of normal controls) was 46%, the “anti-CP IgG antibodies found in RA serum samples” value ([4]; 104 RA patients (67/104), cut-off 97.5th percentile of normal controls) was 64% and the “anti-CP MAP antibodies found in the RA cohort” value ([5]; 100 RA patients, IgG) was 64%. It also gave a specificity [5] of 95%.

— US8900880B2, “Viral citrullinated peptides and uses thereof” (Toscana Biomarkers S.R.L., priority 2009, dated 2014)
